Assay results published in patent publication US20260345595A1, “NOVEL FLUORENE DERIVATIVE COMPOUND AND USE THEREOF” (JD BIOSCIENCE INC., priority 2022, published 2026).

Assays:
[1] = test system: acute kidney ischemic reperfusion (IR) injury in C57BL6J mice; experiment: Acute kidney ischemic reperfusion (IR) injury animal model; format: in vivo, mouse; details: 4 μg/kg and 8 μg/kg, tail vein
Experimental: Vehicle and Compound 1 (4 μg/kg or 8 μg/kg) were administered to 8-week-old male C57BL6J mice via the tail vein 24 hours before, 1 hour before, and 12 hours after ischemic reperfusion (IR) surgery. The surgery was performed by blocking the artery leading to the kidney to induce ischemia for 37 minutes. The blocked artery was released, and 24 hours later, the mice were anesthetized and autopsied. Other part was used to synthesize cDNA, and a kidney damage marker, NGAL was identified by real-time PCR. And serum was separated from the blood, and creatinine, which is a kidney damage marker in the serum, was examined, and the results are shown in FIG. 3.

[2] = test system: cerulein-induced acute pancreatitis in mice; experiment: Cerulein-induced acute pancreatitis animal model; format: in vivo, mouse; details: 5 μg/kg or 10 μg/kg, tail vein; versus Cerulein; FIG. 8
Experimental: Acute pancreatitis was induced by intraperitoneal administration of cerulein (50 μg/kg) dissolved in saline to 8-week-old male mice. Compound 1 was administered at a concentration of 5 μg/kg or 10 μg/kg into the tail vein 24 hours and 1 hour before cerulein administration, and cerulein was intraperitoneally administered six times at 1-hour intervals. 18 hours after the first cerulein administration, the mice were anesthetized, the serum was separated, and the amylase and lipase activities in the serum were measured, which are shown in FIG. 8.

[3] = test system: LPS-induced sepsis in C57BL6J mice; experiment: LPS-induced sepsis animal model, viability; format: in vivo, mouse; details: for Viability: 15 mg/kg i.p. before 50 mg/kg LPS
Experimental: 50 mg/kg of lipopolysaccharide (LPS) administration dose corresponds to the ‘half lethal dose’ that causes death of one half of the population within 24 hours. […] The animal experiment was conducted with six 8-week-old male C57BL6J mice per group. Each mouse was intraperitoneally administered 15 mg/kg of Compound 1 or pretreated with 100 μL of 10% DMSO (vehicle control). 30 minutes later, 50 mg/kg lipopolysaccharide was intraperitoneally injected into each mouse, and the viability was examined for 80 hours, and the results are shown in FIG. 9 and Table 2.

[4] = test system: bone marrow-derived dendritic cells (BMDCs); experiment: IL-1β release (inflammasome formation) in LPS/ATP-stimulated bone marrow-derived dendritic cells, ELISA; format: cell-based, C57BL6 mice; details: versus vehicle control
Experimental: Furthermore, to verify the anti-inflammatory effect at a cellular level, bone marrow cells of C57BL6 mice were treated with 20 ng/ml of GM-CSF and IL-4, and 6 days later, bone marrow-derived dendritic cells (BMDCs) were collected. The BMDCs were prepared at 1×10^6 cells/mL and stabilized for one day, and then subsequent experiments were conducted. The above dendritic cells were treated with 500 ng/ml of LPS for 3 hours to prime pro-IL1B, and then treated with Compound 1 (0 μM, 0.01 µM, 0.1 μM, 1 μM, and 10 μM) for 15 minutes. Next, 5 mM of ATP was treated, which induces inflammasome formation by converting pro-IL1B to IL-1B through pro-IL1B cleavage, and 30 minutes later, the concentration of IL-1B in the supernatant was measured by ELISA, and the results are shown in FIG. 10 and Table 3.

Mfn2−/− MEF cells = experiment: Mitochondrial oxygen consumption rate, Charcot-Marie-Tooth disease model; format: cell-based, mouse; details: 1 μM, 24 hours, FIG. 13
Experimental: To verify the functional loss due to mutation of MFN2 present in the outer mitochondrial membrane, which is the main cause of Charcot-Marie-Tooth disease, the mitochondrial oxygen consumption rate (OCR) was measured. In detail, Mfn2^+/^+MEF cells (normal cells), which are mouse embryonic fibroblasts expressing Mfn2, and Mfn2/MEF cells not expressing Mfn2 were cultured at a density of 1×10^4 for 24 hours in a Seahorse […] culture dish using a DMEM medium supplemented with 10% FBS and penicillin/streptomycin. The cells were treated with DMSO as a vehicle and Compound 1 (1 μM) and cultured for another 24 hours. The mitochondrial oxygen consumption rate was measured using a Seahorse XFe96 analyzer (Agilent Technologies), and the results are shown in FIG. 13.

[5] = Growth inhibition of normal cells, Cell Counting Kit-8; format: cell-based, human (BJ); hamster (CHO); murine (Raw264.7); mouse (L929); details: normal cells, concentration of up to less than 40 μM, 10% FBS, FIG. 15
Experimental: (§1) In order to verify the growth inhibitory effect of Compound 1 on various normal and cancer cell lines, 25 types of cell lines listed in Table 7 below were tested. In detail, each cell was seeded at a density of 2×10^4 cells/well in a 96-well plate and cultured for 24 hours, and then the medium was replaced with a medium comprising 0.5% (for cancer cells) or 10% (for normal cells) FBS, and Compound 1 was treated at various concentrations. 24 hours later, 10 μL of Cell Counting Kit-8 (Dojindo Molecular Technologies) was added, and 1 hour later, absorbance at 480 nm was measured using a microplate reader (TECAN SPARK), and the results are shown in FIGS. 15 to 21.

[6] = test system: normal cells (BJ, CHO, Raw264.7, L929); experiment: as above; format: cell-based, human (BJ); hamster (CHO); murine (Raw264.7); mouse (L929); details: concentrations of up to less than 40 μM, 24 hours
Experimental: as §1

cancer cells = experiment: Growth inhibition of cancer cells, Cell Counting Kit-8; format: cell-based; details: 24 hours, 0.5% FBS; FIGS. 16 to 20
Experimental: as §1

CT26 colorectal cancer = CT26 colorectal cancer tumor model; format: in vivo, nude mice; details: 1.0 mg/kg, FIG. 22
Experimental: A colorectal cancer model was established by subcutaneously transplanting CT26 colorectal cancer cell line into nude mice. The colorectal cancer model was divided into two groups: vehicle administration group and Compound 1 administration group. […] Similar to Experimental Example 13, tumor size was calculated before drug administration and on days 3, 7, 10, 14, 18, 22, and 24 after drug administration, and body weight was measured before drug administration and on days 7, 14 and 22 after drug administration, which are shown in FIG. 22.

[7] = versus vehicle-treated IR, FIG. 2

In the case of `CC(C(=O)NNc1ccc(F)cc1)n1cc(-c2cc(F)cc3c2-c2ccccc2C3(O)C(F)(F)F)cn1` (centres unmarked) [Compound 1, 2-(4-(2-fluoro-9-hydroxy-9-(trifluoromethyl)-9H-fluoren-4-yl)-1H-pyrazol-1-yl)-N′-(4-fluorophenyl)propanehydrazide], the “NGAL RNA expression” value ([1]; kidney, real-time PCR, p<0.01 versus IR+Vehicle, FIG. 3) is reported as “significantly reduced”, the serum creatinine ([1]; p<0.01 versus IR+Vehicle, FIG. 3) is reported as “significantly reduced” and the “apoptosis (TUNEL staining) of kidney tissue” value [1, 7] is reported as “significant reduction in the apoptosis”. For the same compound, the “renal tubular tissue damage (H&E staining)” value [1, 7] was “significant reduction in the renal tubular tissue damage”, the serum amylase activity [2] was “decreased by administration of Compound 1 in a dose-dependent manner” and the serum lipase activity [2] was “decreased by administration of Compound 1 in a dose-dependent manner”. It also gave a Viability ([3]; 0 h) of 100%, a Viability ([3]; 20 h) of 100% and a Viability ([3]; 24 h) of 83.3%. The Viability ([3]; 28 h) was 83.3%, the Viability ([3]; 32 h) was 83.3% and the Viability ([3]; 36 h) was 66.7%. The Viability ([3]; 40 h) was 66.7%, the Viability ([3]; 44 h) was 66.7% and the Viability ([3]; 48 h) was 66.7%. For the same compound, the Viability ([3]; 50 h) was 66.7%, the Viability ([3]; 60 h) was 50% and the Viability ([3]; 70 h) was 50%. The Viability ([3]; 80 h) was 50%, the “viability in sepsis-induced animal model (in words)” value ([3]; 15 mg/kg i.p., p<0.01 versus LPS+vehicle, FIG. 9) was “had the effect of improving the viability” and the inhibition at 0.1 µM ([4]; Mus musculus, BMDC, 0.1 µM, read-out: inhibition of IL-1β expression) was ~83.8%. For the same compound, the inhibition at 10 µM ([4]; Mus musculus, BMDC, 10 µM, read-out: inhibition of IL-1β expression) was ~53.8%, the “inhibition of IL-1β expression (in words)” value ([4]; FIG. 10) was “significantly inhibited” and the “mitochondrial oxygen consumption rate (OCR)” value (Mfn2−/− MEF cells) was “markedly restored to a level comparable to that of normal cells”. The viability at 24 h [5] was ≥ 70%, the “toxicity on normal cells” value [6] was “does not exhibit toxicity on normal cells” and the “viability of cancer cells (in words)” value (cancer cells) was “decreased the viability of cancer cells in a concentration-dependent manner”. For the same compound, the body weight change (CT26 colorectal cancer) was “Neither the vehicle administration group nor the compound 1 administration group showed any change in the body weight” and the “tumor growth (in words)” value (CT26 colorectal cancer; p<0.05 versus vehicle) was “statistically significantly delayed and inhibited”.
